Experimental data reported in article PMC3483484 (The Protein Journal, 2012).

What was measured:
[1] = set-up: method as in earlier work; details: cited from earlier work
[2] = target: T1, human serum albumin (HSA) (Homo sapiens, UniProt P02768); test: Equilibrium dialysis: individual and simultaneous binding (displacement) of 6-MP and site I markers to HSA
T1 construct: Human serum albumin (HSA), fraction V, crystallized and lyophilized; purchased Biomed (Lublin, Poland)
Method: Equilibrium dialysis experiment was performed with bags of 5 cm length made from cellulose tubing, 25 mm diameter when inflated (Dialysis Tubing Cellulose Membranes with molecular weight cut-off of 12 kDa, Sigma Aldrich Co). […] The tubes were closed with parafilm, and were stirred constantly at 20 rotations per minute, at 23 °C. A solution of drug(s) in the compartment B and a solution of albumin in the compartment A were allowed to equilibrate. […] The volumes of the solutions in two compartments remained constant during the dialysis procedure and were not corrected. […] Dialysis with each ligand or mixture of ligands was performed in fivefold and the average value of C b was used as binding data. Protein concentration was 1 × 10^−5 M and ligands concentration was 0.8 × 10^−5 M.
The free-ligands concentrations in compartment B at the beginning of the dialysis and after equilibrium were determined by HPLC. […] A column of LiChrospher 100 RP-18 (5 μm in 4 × 250 mm) (Merck KGaA) was used as the stationary phase. […] All solvents were filtered and degassed prior to use. The injection volume was 50 μL in all the cases. The free ligand concentration was determined using a calibration curve obtained from the concentration of dialyzed ligand in the absence of albumin.
The bound ligand concentration (Cb) was calculated by estimation of free-ligand concentration (Cf) according to the equation [57]:1 [drawing 3] where CL(b) was concentration of bound ligand, CL(f) was final concentration of ligand in buffer compartment and CL(0) was starting concentration of ligand (total ligand concentration before equilibrium dialysis).
The percent binding before and after displacement was compared by using a two-way analysis of variance for balanced data. The confidence intervals based on the residual variance were computed for each pairs of bound fraction before and after displacement.

HSA = details: data from the literature ref 32; cited from earlier work

T1 sequence (P02768 25-609): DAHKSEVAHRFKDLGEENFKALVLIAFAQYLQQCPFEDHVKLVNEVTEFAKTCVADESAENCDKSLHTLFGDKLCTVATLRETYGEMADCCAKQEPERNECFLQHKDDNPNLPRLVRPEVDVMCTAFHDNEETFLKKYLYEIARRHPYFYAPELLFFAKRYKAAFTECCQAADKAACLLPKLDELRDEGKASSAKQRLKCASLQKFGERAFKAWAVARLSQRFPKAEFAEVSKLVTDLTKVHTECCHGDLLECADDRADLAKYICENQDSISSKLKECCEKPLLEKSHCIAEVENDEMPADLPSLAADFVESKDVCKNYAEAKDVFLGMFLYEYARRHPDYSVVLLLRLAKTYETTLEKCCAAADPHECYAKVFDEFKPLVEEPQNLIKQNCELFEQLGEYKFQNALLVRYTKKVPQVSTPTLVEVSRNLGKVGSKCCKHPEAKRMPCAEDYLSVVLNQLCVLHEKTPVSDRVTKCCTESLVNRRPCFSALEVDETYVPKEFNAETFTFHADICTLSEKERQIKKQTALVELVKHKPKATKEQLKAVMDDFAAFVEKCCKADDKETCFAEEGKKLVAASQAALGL

decrease of free fraction (Δ%) of ABE ([2]; by addition of 6-MP, versus ABE alone, p < 0.05) | Kd ([2]; from fb by Eq. (6), before displacement, HSA 1 × 10^−5 M, read-out: Primary association constant log Kexp^HSA (converted)) | Bound ligand fraction (fb%) before displacement ([2]; individual binding, HSA 1 × 10^−5 M, ligand 0.8 × 10^−5 M, pH 7.4, 23 °C) | Bound ligand fraction (fb%) of site marker after displacement ([2]; simultaneous binding, in presence of 6-MP, HSA 1 × 10^−5 M, ligands 0.8 × 10^−5 M) | SMILES | bound to serum proteins ([1]; humans, of the administered dose ref 39) | half-life in plasma ([1]; oral dose, humans ref 39) | Primary association constant log Klit^HSA (HSA)
– | – | – | – | Sc1ncnc2nc[nH]c12 [6-MP, 6-Mercaptopurine] | approximately 19% | 20 to 45 min | –
3.5% | 17 µM | 37.3 ± 0.7% | 39.5 ± 0.6% | CCCCOC(=O)c1ccc(N)cc1 [ABE, n-butyl p-aminobenzoate] | – | – | 4.45
